Patent publication US10058633B2, “Biodegradable scaffolds” (Board of Regents of the University of Texas System, priority 2010, dated 2018)

Tested on: Human umbilical vein endothelial cells (HUVEC)
Assay: Cellular uptake of FITC-BSA released from PLGA/pSi microspheres (transwell, confocal)
Type: cell-based
Details: 7 days
Protocol: 40,000 HUVEC were seeded and cultured on a glass coverslip in a 12 well plate with 500 million PLGA/pSi microspheres loaded with FITC-BSA in a transwell on top of the cells. The media were changed every 3 days. Cellular uptake of FITC-BSA released from the PLGA/pSi microspheres was observed by confocal microscopy staining cells with fluorescent phalloidin (actin filaments) and DRAQ5 (nuclei) after fixation (10% formaldehyde).
Detection of the FITC-BSA loaded pSi particles was based on autofluorescence using 488 excitation laser and the cells were analyzed by using 561 and 632 excitation laser for pholloidin and DRAQ5 respectively. Images were acquired using a Leica MD 6000 upright confocal microscope equipped with a 63× oil immersion objective.

“BSA in solution: control group: bovine serum albumin in solution” was tested, and the “BSA accumulation in cells” value was “did not show any BSA accommulation in cells”.
